In this assay the target is T1, motilin receptors located on the colon of mature rabbits (Oryctolagus cuniculus, UniProt G1T803).
T1 construct: The muscle tissues were homogenized in 10 volumes of buffer; from tissue; host or cells: colon smooth muscle of mature New Zealand rabbits, crude membrane homogenate
Description: Competition with radiolabeled motilin (porcine) for motilin receptors of rabbit colon membranes. The format is binding. The conditions noted are these: @100 nM, I125 motilin (porcine). Here is the method: A compound of the invention was tested for its ability to compete with radiolabeled motilin (porcine) for the motilin receptors located on the colon of mature rabbits. The colon from mature New Zealand rabbits was removed, dissected free from the mucosa and serosa layers, and diced into small pieces. The muscle tissues were homogenized in 10 volumes of buffer (50 mM Tris-Cl 10 MM MgCl2, 0.1 mg/mL bactracin, and 0.25 mM Peflabloc, pH 7.5) in a Polytron (29,000 rpm, 4×15 seconds). The homogenate was centrifuged at 1000×g for 15 min. and the supernatant discarded. The pellet was washed twice before being suspended in homogenizing buffer. This crude homogenate was then passed first through a 19 gauge needle then a 23 gauge needle to further suspend the material and stored at −80° C. […] The pellet was counted in the gamma counter to determine the percentage of […] motilin and thereby the percent inhibition of the test compound.
% Inhibition was Determined by Standard Techniques

T1 sequence (G1T803 1-400): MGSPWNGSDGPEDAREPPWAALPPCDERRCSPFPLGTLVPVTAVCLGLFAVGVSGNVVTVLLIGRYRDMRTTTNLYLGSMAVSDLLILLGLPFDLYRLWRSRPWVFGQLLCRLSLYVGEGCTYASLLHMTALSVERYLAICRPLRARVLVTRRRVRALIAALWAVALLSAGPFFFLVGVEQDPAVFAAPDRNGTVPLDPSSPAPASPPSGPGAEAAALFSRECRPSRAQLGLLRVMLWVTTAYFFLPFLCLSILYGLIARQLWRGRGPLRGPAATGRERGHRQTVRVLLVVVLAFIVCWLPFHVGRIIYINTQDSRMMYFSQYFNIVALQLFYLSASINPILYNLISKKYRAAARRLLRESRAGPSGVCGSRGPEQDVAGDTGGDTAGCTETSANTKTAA

In the case of `O=C(Nc1nncs1)N(CC1=CC(Cc2ccccc2)(NC(=O)C(Cl)(Cl)Cl)CC1)c1cccc(OCCN2CCOCC2)c1` (stereo not shown) [Example 2, 3-Benzyl-3-trichloroacetylamino—N-[(3-(2-morpholinoethoxy)phenyl)-N-[(1,3,4-thiadiazol-2-yl)aminocarbonyl)amino]methylcyclopentene], the % Inhibition (usually the drop in the measured response relative to a control, in per cent) is reported as 17%.

The values are drawn from US6624165B2, “Cyclopentene derivatives useful as antagonists of the motilin receptor” (Ortho-McNeil Pharmaceutical, Inc., priority 2000, dated 2003).
